These results are taken from patent US12441720B2, “Modulators of the integrated stress response pathway” (EVOTEC INTERNATIONAL GMBH, priority 2020, dated 2025).

SMILES strings stand for the structures.

One experiment relates to ATF4. Description: HEK-ATF4 High Content Imaging assay (prevention of Tunicamycin induced ISR). It is filed as cell-based. The note with it: Homo sapiens, wild-type HEK293 cells, 6 hrs incubation, ATF4 signal ratio nucleus/cytoplasm, read-out: Activity (IC50, HEK-ATF4 readout). How it is done:
Example compounds were tested in the HEK-ATF4 High Content Imaging assay to assess their pharmacological potency to prevent Tunicamycin induced ISR. Wild-type HEK293 cells were plated in 384-well imaging assay plates at a density of 12,000 cells per well in growth medium (containing DMEM/F12, 10% FBS, 2 mM L-Glutamine, 100 U/mL Penicillin—100 μg/mL Streptomycin) and incubated at 37° C., 5% CO2. 24-hrs later, the medium was changed to 50 μl assay medium per well (DMEM/F12, 0.3% FBS, 2 mM L-Glutamine, 100 U/mL Penicillin—100 μg/mL Streptomycin). Example compounds were serially diluted in dimethyl sulfoxide (DMSO), spotted into intermediate plates and prediluted with assay medium containing 3.3 μM Tunicamycin to give an 11-fold excess of final assay concentration. In addition to the example compound testing area, the plates also contained multiples of control wells for assay normalization purposes, wells containing Tunicamycin but no example compounds (High control), as well as wells containing neither example compound nor Tunicamycin (Low control). The assay was started by transferring 5 μl from the intermediate plate into the assay plates, followed by incubation for 6 hrs at 37° C., 5% CO2. Subsequently, cells were fixed (4% PFA in PBS, 20 min at room temperature) and submitted to indirect ATF4 immunofluorescence staining (primary antibody rabbit anti ATF4, clone D4B8, Cell Signaling Technologies; secondary antibody Alexa Fluor 488 goat anti-rabbit IgG (H+L), Thermofisher Scientific). Nuclei were stained using Hoechst dye (Thermofisher Scientific), and plates were imaged on an Opera Phenix High Content imaging platform equipped with 405 nm and 488 nm excitation. Finally, images were analyzed using script based algorithms. The main readout HEK-ATF4 monitored the ATF4 signal ratio between nucleus and cytoplasm. Tunicamycin induced an increase in the overall ATF4 ratio signal, which was prevented by ISR modulating example compounds. In addition, HEK-CellCount readout was derived from counting the number of stained nuclei corresponding to healthy cells. This readout served as an internal toxicity control.

Experiment [1] has as its target T1, human ERG potassium channel (hERG) (Homo sapiens, UniProt Q12809).
T1 construct: expressed in transfected cells; host or cells: HEK293, stably transfected, tetracycline-inducible
As to the kind of experiment: hERG tail current recording, Rapid ICE automated patch-clamp (QPatch HTX). It is filed as cell-based. The note with it: recombinant HEK293 cell line stably transfected with hERG cDNA; test concentrations 0.3, 3 and 30 μM; read-out: hERG Activity (IC50, tail current inhibition). How it is done:
The potency of the example compounds in inhibiting human ERG potassium channel (hERG) tail current was assessed in a recombinant HEK293 cell line stably transfected with hERG cDNA under an inducible promoter, using Rapid ICE (rapid ion channel electrophysiology) assay. Rapid ICE is an automated patch-clamp assay utilizing the QPatch HTX system (Sophion Bioscience A/S). Briefly, inducible HEK hERG cells were cultivated in minimum essential medium supplemented with 10% FBS, 1% non-essential amino acids, 1% sodium pyruvate, 2 mM 1-glutamine, 15 μg/mL blasticidin, and 100 μg/mL hygromycin. hERG channel expression induction was obtained by adding 10 μg/mL tetracycline for 24, 48, or 72 h before recordings.
On the day of the experiment, cells were detached with TrypLE and prepared to be loaded on the instrument. Cells were resuspended in 7 mL of Serum-Free Media containing 25 mM Hepes and soybean trypsin inhibitor and immediately placed in the cell storage tank of the machine. The composition of the extracellular buffer was (mM): NaCl 137, KCl 4, CaCl2 1.8, MgCl2 1.0, d-glucose 10, N-2-hydroxyethylpiperazine-N′-2-ethanesulfonic acid (HEPES) 10, pH 7.4 with 1 M NaOH. The composition of the intracellular solution was (mM): KCl 130, MgCl2 1.0, ethylene glycol-bis(β-aminoethyl ether)-N,N,N′,N′-tetraacetic acid (EGTA) 5, MgATP 5, HEPES 10, pH 7.2 with 1 M KOH. The voltage protocol included the following steps: step from −80 to −50 mV for 200 ms, +20 mV for 4.8 s, step to −50 mV for 5 s, then step to the holding potential of […]. Example compounds were dissolved in DMSO and diluted in extracellular buffer to achieve final test concentrations (0.3, 3, and 30 μM) in 0.3% DMSO. The voltage protocol was run and recorded continuously during the experiment. The vehicle, corresponding to 0.3% DMSO in extracellular buffer was then applied for 3 min, followed by the example compound in triplicate. The standard combined exposure time was 5 min. The average of tail current amplitude values recorded from four sequential voltage pulses was used to calculate for each cell the effect of the example compound by calculating the residual current (% control) compared with vehicle pretreatment. Data were reported as % inhibition for each concentration tested, and IC50 values were estimated using QPatch software. At least two cells were tested, and even more if results diverged.

T1 sequence (Q12809 whole entry): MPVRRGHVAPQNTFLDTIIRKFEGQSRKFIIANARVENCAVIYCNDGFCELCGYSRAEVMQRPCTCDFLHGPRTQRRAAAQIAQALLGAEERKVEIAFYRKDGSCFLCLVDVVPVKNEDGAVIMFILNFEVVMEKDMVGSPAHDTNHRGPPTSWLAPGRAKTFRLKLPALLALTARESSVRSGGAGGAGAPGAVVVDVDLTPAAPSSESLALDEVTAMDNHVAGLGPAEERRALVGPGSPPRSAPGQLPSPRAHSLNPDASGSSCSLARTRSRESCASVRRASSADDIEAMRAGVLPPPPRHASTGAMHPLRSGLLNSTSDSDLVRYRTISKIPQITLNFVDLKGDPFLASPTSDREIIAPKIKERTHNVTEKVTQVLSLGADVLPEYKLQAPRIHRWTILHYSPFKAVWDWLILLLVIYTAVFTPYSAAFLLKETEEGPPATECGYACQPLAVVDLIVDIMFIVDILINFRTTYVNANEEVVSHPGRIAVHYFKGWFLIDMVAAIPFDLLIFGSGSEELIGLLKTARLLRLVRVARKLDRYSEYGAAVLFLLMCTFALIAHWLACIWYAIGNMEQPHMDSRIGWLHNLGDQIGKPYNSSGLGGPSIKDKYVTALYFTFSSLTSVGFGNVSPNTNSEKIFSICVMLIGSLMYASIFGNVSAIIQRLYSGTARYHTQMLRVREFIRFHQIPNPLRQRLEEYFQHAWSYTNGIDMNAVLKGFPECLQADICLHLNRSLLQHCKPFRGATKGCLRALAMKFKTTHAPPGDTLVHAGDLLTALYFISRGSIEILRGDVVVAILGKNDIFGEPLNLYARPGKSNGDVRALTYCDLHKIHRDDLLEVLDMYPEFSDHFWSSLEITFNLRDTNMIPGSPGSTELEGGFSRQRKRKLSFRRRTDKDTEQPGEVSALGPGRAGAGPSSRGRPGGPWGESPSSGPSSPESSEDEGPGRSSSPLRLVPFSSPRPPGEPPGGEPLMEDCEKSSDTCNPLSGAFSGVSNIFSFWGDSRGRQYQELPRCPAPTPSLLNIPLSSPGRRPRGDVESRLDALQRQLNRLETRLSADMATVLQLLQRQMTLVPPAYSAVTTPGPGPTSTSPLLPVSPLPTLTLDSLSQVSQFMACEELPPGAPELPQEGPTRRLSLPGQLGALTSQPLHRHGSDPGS

In the case of `O=C(COc1ccc(Cl)c(F)c1)N[C@H]1CO[C@H](c2nnc(-c3ccc(Cl)cc3)o2)OC1` [Example 1, 2-(4-chloro-3-fluorophenoxy)-N-[trans-2-[5-(4-chlorophenyl)-1,3,4-oxadiazol-2-yl]-1,3-dioxan-5-yl]acetamide], the half-maximal inhibitory concentration (IC50) in the experiment with ATF4 was in the range of 0.001 to 0.5 µM. Regarding `O=C(COc1ccc(Cl)c(F)c1)N[C@H]1CO[C@H](c2nnc([C@H]3C[C@@H](OC(F)(F)F)C3)o2)OC1` [Example 2, 2-(4-chloro-3-fluorophenoxy)-N-[trans-2-{5-[cis-3-(trifluoromethoxy)cyclobutyl]-1,3,4-oxadiazol-2-yl}-1,3-dioxan-5-yl]acetamide], the figures for the IC50 (in experiment [1]; in the experiment on ATF4) were above 5 µM and 0.001 to 0.5 µM, respectively.

With `O=C(COc1ccc(Cl)c(F)c1)N[C@H]1CO[C@@H](c2cn(-c3ccc(Cl)cc3)nn2)OC1` [Example 3, 2-(4-chloro-3-fluorophenoxy)-N-[cis-2-[1-(4-chlorophenyl)-1H-1,2,3-triazol-4-yl]-1,3-dioxan-5-yl]acetamide], the IC50 in the experiment on ATF4 lay in the range of 2 to 15 µM. The same measure, in the same setting: the same measure for `O=C(COc1ccc(Cl)c(F)c1)N[C@H]1CO[C@H](c2cn(-c3ccc(Cl)cc3)nn2)OC1` [Example 4, 2-(4-chloro-3-fluorophenoxy)-N-[trans-2-[1-(4-chlorophenyl)-1H-1,2,3-triazol-4-yl]-1,3-dioxan-5-yl]acetamide]: 0.5 to 2 µM. In the case of `O=C(COc1ccc(Cl)c(F)c1)N[C@H]1CO[C@H](c2nnc(OCCCC(F)(F)F)o2)OC1` [Example 5, 2-(4-chloro-3-fluorophenoxy)-N-[trans-2-[5-(4,4,4-trifluorobutoxy)-1,3,4-oxadiazol-2-yl]-1,3-dioxan-5-yl]acetamide], the figures for the half-inhibitory concentration (IC50) (in experiment [1]; with ATF4) were 1 to 5 µM and 0.001 to 0.5 µM, respectively.

Take `O=C(COc1ccc(Cl)c(F)c1)N[C@H]1CO[C@H](c2nnc(OCCOC(F)(F)F)o2)OC1` [Example 6, 2-(4-chloro-3-fluorophenoxy)-N-[trans-2-{5-[2-(trifluoromethoxy)ethoxy]-1,3,4-oxadiazol-2-yl}-1,3-dioxan-5-yl]acetamide]: the IC50 in experiment [1] is above 5 µM; with ATF4, 0.001 to 0.5 µM. The like results for `O=C(COc1ccc(Cl)c(F)c1)N[C@H]1CO[C@H](c2nnc(N3CC(OC(F)(F)F)C3)o2)OC1` [Example 7, 2-(4-chloro-3-fluorophenoxy)-N-[trans-2-{5-[3-(trifluoromethoxy)azetidin-1-yl]-1,3,4-oxadiazol-2-yl}-1,3-dioxan-5-yl]acetamide] were, in that order, above 5 µM and 0.001 to 0.5 µM. For the compound `O=C(COc1ccc(C(F)F)c(Cl)c1)N[C@H]1CO[C@H](c2nnc(N3CC(OC(F)(F)F)C3)o2)OC1` [Example 8, 2-[3-chloro-4-(difluoromethyl)phenoxy]-N-[trans-2-{5-[3-(trifluoromethoxy)azetidin-1-yl]-1,3,4-oxadiazol-2-yl}-1,3-dioxan-5-yl]acetamide], the IC50 in experiment [1] was above 5 µM; in the experiment with ATF4 it was 0.001 to 0.5 µM.

As to `O=C(COc1ccc(Cl)c(Cl)c1)N[C@H]1CO[C@H](c2nnc(OCCOC(F)(F)F)o2)OC1` [Example 9, 2-(3,4-dichlorophenoxy)-N-[trans-2-{5-[2-(trifluoromethoxy)ethoxy]-1,3,4-oxadiazol-2-yl}-1,3-dioxan-5-yl]acetamide], the IC50 is above 5 µM in experiment [1] and 0.001 to 0.5 µM in the experiment with ATF4.

Regarding `O=C(COc1cnc(Cl)c(F)c1)N[C@H]1CO[C@H](c2nnc([C@H]3C[C@@H](OC(F)(F)F)C3)o2)OC1` [Example 10, 2-[(6-chloro-5-fluoro-3-pyridyl)oxy]-N-[trans-2-[5-[cis-3-(trifluoromethoxy)cyclobutyl]-1,3,4-oxadiazol-2-yl]-1,3-dioxan-5-yl]acetamide], the IC50 in experiment [1] was above 5 µM; in the experiment on ATF4, 2 to 15 µM.
